Patent publication US20240269299A1, “POLYETHYLENE GLYCOL-DRUG CONJUGATE AND USE THEREOF” (CHONGQING UPGRA BIOTECHNOLOGY CO. LTD., priority 2021, published 2024)

System: choroidal neovascularization (CNV)
Experiment: Laser modeling of choroidal neovascularization (CNV) in mice
Format: in vivo, C57BL/6J suckling mice
Details: 1 μL injected into vitreous space one week after photocoagulation
Description: Experimental animals: C57BL/6J suckling mice, where the mice were all female and subjected to laser modeling three days after birth.
A mixed solution of 20% V/V PEG300, 20% V/V anhydrous ethanol and 60% V/V normal saline was used as a solvent for compound 39-205 to prepare a 20 mg/mL solution for use in mice No. 6 and No. 7, respectively. A saline solution of aflibercept was used as a positive control for mouse No. 5.
After the mice were anesthetized, a semiconductor laser was used to perform retinal photocoagulation around optic discs under a retinoscope. An irradiation site was between blood vessels that were one optic disc diameter away from the optic disc. The generation of bubbles after photocoagulation was an indicator of breaking Bruch's membrane. The laser modeling conditions for mice No. 6 and No. 7 were 350 mw and 200 ms, and the laser modeling conditions for mouse No. 5 were 300 mw, 260 ms, and the photocoagulation time was 1 s. One week after photocoagulation, medication treatments started for the mice. The administration method was: 1 μL of each of the 20 mg/mL solution of compound 39-205 prepared above and a normal saline solution of aflibercept was injected into vitreous space.

aflibercept
area of the laser spot after administration (compound 39-205 as 20 mg/mL solution, aflibercept in normal saline, FIG. 1 to FIG. 4): did not significantly reduce
fundus angiography after administration (mouse No. 5, FIG. 1): not significantly improved
